Experimental data as given in patent US20050054582A1, “Para-amino benzoic acids as integrin antagonists” (priority 2001, published 2005).
pIC50: −log10 of the molar value. Like-named read-outs stand apart in the source and are kept apart here.

What was measured:
[1] = system: adhesion of Ramos cells to VCAM-1; test: Adhesion of Ramos cells to immobilized VCAM-1 (domains 1-3); format: cell-based; conditions: Homo sapiens
Description: In Vitro Assay: Adhesion of Ramos Cells to Immobilized VCAM-1 (Domains 1-3) Preparation of VCAM-1 (Extracellular Domains 1-3)
Complementary DNA (cDNA) encoding 7-domain form of VCAM-1 (GenBank accession #M60335) was obtained using Rapid-Screen™ cDNA library panels (OriGene Technologies, Inc) at Takara Gene Analysis Center (Shiga, Japan). The primers used were 5′-CCAAGGCAGAGTACGCAAAC-3′ (sense) and 5′-TGGCAGGTATTATTAAGGAG-3′ (antisense). PCR amplification of the 3-domain VCAM-1 cDNA was perform using Pfu DNA polymerase (Stratagene) with the following sets of primers: (U-VCAMd1-3) 5′-CCATATGGTACCTGATCAATTTAAAATCGAGACCACCCCAGAA-3′; (L-VCAMdl-3) 5-CCATATAGCAATCCTAGGTCCAGGGGAGATCTCAACAGTAAA-3′. PCR cycle was 94° C. for 45 sec, 55° C. for 45 sec, 72° C. for 2 min, repeating 15 cycles. After the purification of the PCR product, the fragment was digested with KpnI-AvrII. The digested fragment was ligated into pBluescript IISK(−) (Strategene), which was linearized by digesting with KpnI-XhoI. The ligation was followed by transformation to a Dam/Dcm methylase-free E. coli strain SCS110 (Strategene) to create the donor plasmid […]. To direct VCAM-1 molecule into the insect cell secretory pathway, the VCAM-1 coding sequence was fused to signal peptide sequence of honeybee melittin. The resulting melittin-VCAM fusion was placed in correct orientation to the baculovirus polyhedrin promoter. Baculovirus transfer vector containing first 3-domain form VCAM-1 (pH10) was constructed by ligation of 0.9 kb fragment from AvrII/Klenow/BclI digests of pH7 into SalI/Klenow/BamHI digests of pMelBacB (Invitrogen). Recombinant baculovirus was generated by using Bac-N-Blue™ Transfection kit (Invitrogen) according to the manufacture's instruction. The recombinant virus was amplified by infection to High-Five™ insect cells for 5-6 days, and virus titer was determined by plaque assay.
High-Five™ insect cells were pelleted in a 225 ml conical tube by centrifugation at 1000 rpm for 5 min. After discarding the supernatant, the pellet was resuspended in 1.5×10^9 pfu (MOI=5) of high-titer virus solution, followed by incubation for 1.5 hours at room temperature. The cells were pelleted again and washed once in fresh Express Five™ serum free medium. The cells were pelleted again and finally, resuspended in 200 ml of fresh Express Five TM medium, transferred to a 1,000 ml shaker flask, and incubated in a shaker at 27° C., 130 rpm, for 48 hours before the culture supernatant was collected. The purification of 3-domain form of VCAM-1 from the culture supernatant was performed by one-step anion exchange chromatography. Protein concentration was determined by using Coomassie protein assay reagent (Pierce) according to the manufacture's instruction.
Preparation of VCAM-1 Coated Microtiter Plates
Recombinant human VCAM-1 (extracellular domains 1-3) was dissolved at 1.0 μg/ml in PBS. Each well of the microtiter plates (Nalge Nunc International, Fluoronunc Cert, 437958) was coated with 100 μl of substrate or for background control with buffer alone for 15 hours at 4 C. After discarding the substrate solution, the wells were blocked using 150 μl per well of block solution (Kirkegaard Perry Laboratories, 50-61-01) for 90 minutes. The plate was washed with wash buffer containing 24 mM Tris-HCl (pH 7.4), 137 mM NaCl, […] and 2 mM MnCl2 just before addition of the assay.
In Vitro Assay using Ramos Cells
Preparation of Fluorescence Labeled Ramos Cells:
Ramos cells (American Type Culture Collection, Clone CRL-1596) were cultured in RPMI 1640 medium (Nikken Bio Medical Laboratory, CM1101) supplemented with 10% fetal bovine serum (Hyclone, A-1119-L), 100 U/ml penicilin (Gibco BRL, 15140-122) and 100 μg/ml streptomycin (Gibco BRL, 15140-122) in a humidified incubator at 37° C. with 5% CO2. […]

[2] = observed IC50 value ranges, Table 4 does not say whether Ramos-VCAM-1 or Jurkat-VCAM-1, read-out: IC50

| SMILES | pIC50 ([1]; Ramos) | melting point | pIC50 [1, 2] |
| --- | --- | --- | --- |
| Cc1ccccc1NC(=O)Nc1ccc(CC(=O)NCC(=O)Nc2ccc(C(=O)O)cc2)cc1 [Example 39, 4-[(N-{[4-({[(2-methylphenyl)amino]carbonyl}amino)phenyl]acetyl}glycyl)amino]benzoic acid] | > 6.30 | 268 to 271 °C | – |
| Cc1ccccc1NC(=O)Nc1ccc(CC(=O)NC2CCCN(c3ccc(C(=O)O)cc3)C2)cc1 (stereo not shown) [Example 49, 4-[3-({[4-({[(2-methylphenyl)amino]carbonyl}amino)phenyl]acetyl}amino)-1-piperidinyl]benzoic acid] | > 6.30 | 236 to 238 °C | – |
| Cc1ccccc1NC(=O)Nc1ccc(CC(=O)NC2CCN(c3ccc(C(=O)O)cc3)C2)cc1 (stereo not shown) [Example 50, 4-[3-({[4-({[(2-methylphenyl)amino]carbonyl}amino)phenyl]acetyl}amino)-1-pyrrolidinyl]benzoic acid] | > 6.30 | 239 to 242 °C | – |
| Cc1ccccc1NC(=O)Nc1ccc(CC(=O)NCC(=O)N(CC(C)C)c2ccc(C(=O)O)cc2)cc1 [Example 51, 4-[isobutyl(N-{[4-({[(2-methylphenyl)amino]carbonyl}amino)phenyl]acetyl}glycyl)amino]benzoic acid] | < 5.00 | 131 to 132 °C | – |
| COCCCN(CC(=O)N(CC(C)C)c1ccc(C(=O)O)cc1)C(=O)Cc1ccc(NC(=O)Nc2ccccc2C)cc1 [Example 52, 4-[isobutyl(N-(3-methoxypropyl)-V-{[4-({[(2-methylphenyl)amino]carbonyl}amino)phenyl]acetyl}glycyl)amino]benzoic acid] | < 5.00 | 76 to 76.5 °C | – |
| COCCCN(CC(=O)N(C)c1ccc(C(=O)O)cc1)C(=O)Cc1ccc(NC(=O)Nc2ccccc2C)cc1 [Example 53, 4-[(N-(3-methoxypropyl)-N-{[4-({[(2-methylphenyl)amino]carbonyl}amino)phenyl]acetyl}glycyl)(methyl)amino]benzoic acid] | 5.70 to 6.30 | 63 to 64 °C | – |
| Cc1ccccc1NC(=O)Nc1ccc(CC(=O)N[C@@H](CCCCN)C(=O)Nc2ccc(C(=O)O)cc2)cc1.O=C(O)C(F)(F)F [Example 53a] | – | 168 to 169 °C | > 6.30 |
| Cc1ccccc1NC(=O)Nc1ccc(CC(=O)N[C@H](CCCCN)C(=O)Nc2ccc(C(=O)O)cc2)cc1.O=C(O)C(F)(F)F [Example 54, 4-[(N^2-{[4-({[(2-methylphenyl)amino]carbonyl}amino)phenyl]acetyl}-D-lysyl)amino]benzoic acid trifluoroacetate] | – | 73 to 75 °C | > 6.30 |
| O=C(Cc1ccc2nc(Nc3ccccc3)oc2c1)NCC(=O)Nc1ccc(C(=O)O)cc1 [Example 74, 4-({N-[(2-anilino-1,3-benzoxazol-6-yl)acetyl]glycyl}amino)benzoic acid] | > 6.30 | > 280 °C | – |
| O=C(CN(CCc1ccccc1)C(=O)Cc1ccc2nc(Nc3ccccc3)oc2c1)Nc1ccc(C(=O)O)cc1 [Example 75, 4-{[N-[(2-anilino-1,3-benzoxazol-6-yl)acetyl]-N-(2-phenylethyl)glycyl]-amino}benzoic acid] | > 6.30 | 160 to 162 °C | – |
| O=C(CN(CCc1ccccn1)C(=O)Cc1ccc2nc(Nc3ccccc3)oc2c1)Nc1ccc(C(=O)O)cc1 [Example 76, 4-({N-[(2-anilino-1,3-benzoxazol-6-yl)acetyl]-N-[2-(2-pyridinyl)ethyl]glycyl}amino)benzoic acid] | > 6.30 | 252 to 253 °C | – |

Other lines, results leading:

| pIC50 ([1]; Ramos) | melting point | pIC50 [1, 2] | SMILES |
| --- | --- | --- | --- |
| 5.70 to 6.30 | 162 to 165 °C | – | O=C(CN(CCc1cccc(Cl)c1)C(=O)Cc1ccc2nc(Nc3ccccc3)oc2c1)Nc1ccc(C(=O)O)cc1 [Example 78] |
| 5.00 to 5.70 | 170 to 171 °C | – | O=C(CN(CCc1ccc(Cl)c(Cl)c1)C(=O)Cc1ccc2nc(Nc3ccccc3)oc2c1)Nc1ccc(C(=O)O)cc1 [Example 79] |
| < 5.00 | 156 to 158 °C | – | O=C(CN(CCc1ccc(Oc2ccc(Cl)cc2)cc1)C(=O)Cc1ccc2nc(Nc3ccccc3)oc2c1)Nc1ccc(C(=O)O)cc1 [Example 80] |
| > 6.30 | 267 to 268 °C | – | Cc1ccccc1Nc1nc2ccc(CC(=O)NCC(=O)Nc3ccc(C(=O)O)cc3)cc2o1 [Example 81, 4-{[N-({2-[(2-methylphenyl)amino]-1,3-benzoxazol-6-yl}acetyl)glycyl]-amino}benzoic acid] |
| > 6.30 | 232 to 233 °C | – | Cc1ccccc1Nc1nc2ccc(CC(=O)N(CCc3ccccc3)CC(=O)Nc3ccc(C(=O)O)cc3)cc2o1 [Example 82, 4-{[N-({2-[(2-methylphenyl)amino]-1,3-benzoxazol-6-yl}acetyl)-N-(2-phenylethyl)glycyl]amino}benzoic acid] |
| > 6.30 | 175 to 176 °C | – | Cc1ccccc1Nc1nc2ccc(CC(=O)N(CCc3ccccn3)CC(=O)Nc3ccc(C(=O)O)cc3)cc2o1 [Example 83, 4-({N-({2-[(2-methylphenyl)amino]-1,3-benzoxazol-6-yl}acetyl)-N-[2-(2-pyridinyl)ethyl]glycyl}amino)benzoic acid] |
